In the supplement of paper PMC10627819:

Tests used:
[1] = tested on: S. pneumoniae D39V; test: fitness (endpoint OD595 vs no drug) (fraction); higher = more growth
In short: (§1)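 Fitness expresses the optical density reached at the stationary-phase transition as a fraction of the robust mean of no-drug control wells. It is capped at 1. Measurements were OD595 every 30 min for 14 h at 37 °C after inoculation of 384-well plates at OD595 0.01 (30 µl, or 55 µl for S. pneumoniae), minus the first reading.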

[2] = tested on: B. subtilis 168; test: as above
In short: as §1
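Further: OD595 on entry to stationary phase over no-drug wells; at most 1.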

O=C(O)[C@H]1/C(=C/CO)O[C@@H]2CC(=O)N21 [Clavulanic acid] + O=C1CN(/N=C/c2ccc([N+](=O)[O-])o2)C(=O)N1 [Nitrofurantoin]
fitness, [1]
Conditions | partner 1.285 µg/mL | partner 2 µg/mL | partner 2.57 µg/mL | partner 4 µg/mL | partner 8 µg/mL
first compound 0.5 µg/mL | 0.916 | 0.92 | 0.943 | 0.878 | 0.628
first compound 1 µg/mL | 0.933 | 0.887 | 0.94 | 0.773 | 0.544
first compound 2 µg/mL | 0.883 | 0.658 | 0.874 | 0.59 | 0.358

[1], partner 5.14 µg/mL, one replicate
Conditions | fitness
first compound 0.5 µg/mL | 0.898
first compound 1 µg/mL | 0.852
first compound 2 µg/mL | 0.817

O=C(O)[C@H]1/C(=C/CO)O[C@@H]2CC(=O)N21 [Clavulanic acid] + CO/N=C(\C(=O)N[C@@H]1C(=O)N2C(C(=O)O)=C(COC(N)=O)CS[C@H]12)c1ccco1 [Cefuroxime]
fitness, [2]
Conditions | first compound 1.5 µg/mL | first compound 3 µg/mL | first compound 6 µg/mL
partner 0.04875 µg/mL | 0.661 | 0.626 | 0.562
partner 0.0975 µg/mL | 0.651 | 0.607 | 0.542
partner 0.195 µg/mL | – | 0.345 | 0.359

fitness, [2], one replicate
Conditions | partner 0.39 µg/mL | partner 0.78 µg/mL | partner 1.562 µg/mL | partner 3.125 µg/mL | partner 6.25 µg/mL
first compound 1.5 µg/mL | 0.288 | 0.232 | 0.353 | 0.235 | 0.202
first compound 3 µg/mL | 0.0208 | 0.0871 | 0.319 | 0.276 | 0.238
first compound 6 µg/mL | 0.216 | 0.172 | 0.241 | 0.18 | 0.142

O=C(O)[C@H]1/C(=C/CO)O[C@@H]2CC(=O)N21 [Clavulanic acid] + C[C@H]1COc2c(N3CCN(C)CC3)c(F)cc3c(=O)c(C(=O)O)cn1c23 [Levofloxacin]
fitness, [2], one replicate
Conditions | first compound 1.5 µg/mL | first compound 3 µg/mL | first compound 6 µg/mL
partner 0.001 µg/mL | 0.908 | 0.852 | 0.776
partner 0.0078 µg/mL | 0.919 | 0.872 | 0.82

Conditions | fitness
[1], first compound 0.5 µg/mL, partner 0.1725 µg/mL | 0.948
[1], first compound 0.5 µg/mL, partner 0.2 µg/mL | 0.914
[1], first compound 0.5 µg/mL, partner 0.345 µg/mL | 0.881
[1], first compound 0.5 µg/mL, partner 0.4 µg/mL | 0.681
[1], first compound 0.5 µg/mL, partner 0.69 µg/mL | 0.61
[1], first compound 0.5 µg/mL, partner 0.8 µg/mL | 0.134
[1], first compound 1 µg/mL, partner 0.1725 µg/mL | 0.927
[1], first compound 1 µg/mL, partner 0.2 µg/mL | 0.805
[1], first compound 1 µg/mL, partner 0.345 µg/mL | 0.842
[1], first compound 1 µg/mL, partner 0.4 µg/mL | 0.599
[1], first compound 1 µg/mL, partner 0.8 µg/mL | 0.242
[1], first compound 2 µg/mL, partner 0.1725 µg/mL | 0.841
[1], first compound 2 µg/mL, partner 0.2 µg/mL | 0.623
[1], first compound 2 µg/mL, partner 0.345 µg/mL | 0.735
[1], first compound 2 µg/mL, partner 0.4 µg/mL | 0.431
[1], first compound 2 µg/mL, partner 0.69 µg/mL | 0.423
[1], first compound 2 µg/mL, partner 0.8 µg/mL | 0.103
[2], first compound 1.5 µg/mL, partner 0.002 µg/mL | 0.836
[2], first compound 1.5 µg/mL, partner 0.0039 µg/mL | 0.821
[2], first compound 1.5 µg/mL, partner 0.0312 µg/mL | 0.0412
[2], first compound 1.5 µg/mL, partner 0.0625 µg/mL | 0.0486
[2], first compound 1.5 µg/mL, partner 0.125 µg/mL | 0.0536
[2], first compound 3 µg/mL, partner 0.002 µg/mL | 0.829
[2], first compound 3 µg/mL, partner 0.0039 µg/mL | 0.81
[2], first compound 3 µg/mL, partner 0.0312 µg/mL | 0.0294
[2], first compound 3 µg/mL, partner 0.0625 µg/mL | 0.0351
[2], first compound 3 µg/mL, partner 0.125 µg/mL | 0.0411
[2], first compound 6 µg/mL, partner 0.002 µg/mL | 0.734
[2], first compound 6 µg/mL, partner 0.0039 µg/mL | 0.72
[2], first compound 6 µg/mL, partner 0.0312 µg/mL | 0.0384
[2], first compound 6 µg/mL, partner 0.0625 µg/mL | 0.0352
[2], first compound 6 µg/mL, partner 0.125 µg/mL | 0.0346

O=C(O)[C@H]1/C(=C/CO)O[C@@H]2CC(=O)N21 [Clavulanic acid] + C/C(=C\C(=O)OCCCCCCCCC(=O)O)C[C@@H]1OC[C@H](C[C@@H]2O[C@H]2[C@@H](C)[C@H](C)O)[C@@H](O)[C@H]1O [Pseudomonic acid]
fitness, [1]
Conditions | first compound 0.5 µg/mL | first compound 1 µg/mL | first compound 2 µg/mL
partner 0.03 µg/mL | 0.921 | 0.906 | 0.832
partner 0.06 µg/mL | 0.769 | 0.803 | 0.656
partner 0.12 µg/mL | 0.408 | 0.519 | 0.277

O=C(O)[C@H]1/C(=C/CO)O[C@@H]2CC(=O)N21 [Clavulanic acid] + CO[C@@H]1[C@@H](OC(N)=O)[C@@H](O)[C@H](Oc2ccc3c(O)c(NC(=O)c4ccc(O)c(CC=C(C)C)c4)c(=O)oc3c2C)OC1(C)C [Novobiocin]
fitness, [2]
Conditions | first compound 1.5 µg/mL | first compound 3 µg/mL | first compound 6 µg/mL
partner 0.0125 µg/mL | 0.932 | 0.895 | 0.759
partner 0.025 µg/mL | 0.935 | 0.89 | 0.727
partner 0.05 µg/mL | 0.951 | 0.914 | 0.798

fitness, [2], one replicate
Conditions | partner 0.1 µg/mL | partner 0.125 µg/mL | partner 0.2 µg/mL | partner 0.25 µg/mL | partner 0.5 µg/mL
first compound 1.5 µg/mL | 0.893 | 0.827 | 0.975 | 0.841 | 0.511
first compound 3 µg/mL | 0.937 | 0.815 | 0.989 | 0.774 | 0.385
first compound 6 µg/mL | 0.827 | 0.775 | 0.796 | 0.726 | 0.209
